Reference: US8685972B2, “Pyrimidine derivatives for treatment of alzheimer's disease” (Merck Sharp & Dohme Corp., priority 2008, dated 2014)

Target: T1, γ-secretase (Homo sapiens, UniProt P49768)
T1 construct: Human SH-SY5Y neuroblastoma cells overexpressing the direct β-secretase substrate SPA4CT; endogenous in cells; host or cells: human SH-SY5Y neuroblastoma cells (stably overexpressing the substrate SPA4CT, induced with sodium butyrate)
Test: Cell-Based γ-Secretase Assay (inhibition of Aβ(1-42) production, Meso Scale detection)
Conditions: Human SH-SY5Y neuroblastoma cells overexpressing SPA4CT; overnight incubation; Aβ(42) in media
Description: Cell-Based γ-Secretase Assay
Human SH-SY5Y neuroblastoma cells overexpressing the direct β-secretase substrate SPA4CT were induced with sodium butyrate (10 mM) for 4 hours prior to plating. Cells were plated at 35,000 cells/well/100 μl in 96-well plates in phenol red-free MEM/10% FBS, 50 mM HEPES, 1% Glutamine and incubated for 2 hrs at 37° C., 5% CO2.
Compounds for testing were diluted into Me2SO to give a ten point dose-response curve. Typically 10 μl of these diluted compounds in Me2SO were further diluted into 182 μl dilution buffer (phenol red-free MEM/10% FBS, 50 mM HEPES, 1% Glutamine) and 10 μl of each dilution was added to the cells in 96-well plates (yielding a final Me2SO concentration of 0.5%). Appropriate vehicle and inhibitor controls were used to determine the window of the assay.
After incubation overnight at 37° C., 5% CO2, 25 μl and 50 μl media were transferred into a standard Meso avidin-coated 96-well plate for detection of Aβ(40) and Aβ(42) peptides, respectively. 25 μl Meso Assay buffer (PBS, 2% BSA, 0.2% Tween-20) was added to the Aβ(40) wells followed by the addition of 25 μl of the respective antibody premixes to the wells:
Aβ(40) premix: 1 μg/ml ruthenylated G2-10 antibody, 4 μg/ml biotinylated 4G8 antibody diluted in Origen buffer
Aβ(42) premix: 1 μg/ml ruthenylated G2-11 antibody, 4 μg/ml biotinylated 4G8 antibody diluted in Origen buffer
(Biotinylated 4G8 antibody supplied by Signet Pathology Ltd; G2-10 and G2-11 antibodies supplied by Chemicon)
After overnight incubation of the assay plates on a shaker at 4° C., the Meso Scale Sector 6000 Imager was calibrated according to the manufacturer's instructions. After washing the plates 3 times with 150 μl of PBS per well, 150 μl Meso Scale Discovery read buffer was added to each well and the plates were read on the Sector 6000 Imager according to the manufacturer's instructions.
LD50 and IC50 values for inhibition of Aβ(40) and Aβ(42) were calculated by nonlinear regression fit analysis using the appropriate software (eg. Excel fit). The total signal and the background were defined by the corresponding Me2SO and inhibitor controls.

Compound: CCOc1cc(C)c(Nc2nc(N3CCC(Cc4ccncc4)CC3)ncc2Cl)cc1C(C)C [Example 11]
- IC50: 500 to 1500 nM

Compound: Cc1ccc(OC(C)C)cc1Nc1ccnc(N2CCC(Cc3ccncc3)CC2)n1 [Example 12]
- IC50: 500 to 1500 nM

Compound: Cc1cc(C)c(N(C)C)cc1Nc1ccnc(N2CCC(Cc3ccncc3)CC2)n1 [Example 10]
- IC50: 1500 to 3000 nM

Compound: COC(=O)c1cc(Nc2cc(C(C)(C)C)ccc2C)nc(N2CCC(Cc3ccncc3)CC2)n1 [Example 18]
- IC50: 500 to 1500 nM

Compound: Cc1ccc(C(C)(C)C)cc1Nc1nc(N2CCC(Cc3ccncc3)CC2)ncc1F [Example 22]
- IC50: 1500 to 3000 nM

Compound: Cc1ccc(C(C)(C)C)cc1Nc1ccnc(N2CCC(Cc3ccncc3)CC2)n1 [Example 4]
- IC50: 500 to 1500 nM

Compound: COc1cnc(N2CCC(Cc3ccncc3)CC2)nc1Nc1cc(N(C)C)ccc1C [Example 6]
- IC50: 1500 to 3000 nM
